Results reported in patent US20260102407A1, “TREATMENT METHODS” (priority 2020, published 2026).

Key:
p-SAPK/JNK = test: Western blot, IL-1β-inducible p-SAPK/JNK in HMEC-1; assay type: cell-based, human; conditions: 1-30 μM
Protocol: (§1) Western blot analysis with extracts of cells treated with IL-13. HMEC-1 (80-90% confluency) were arrested in serum-free MCDB131 medium (Invitrogen, MD) without any growth factor for 48 h. Cells were treated with 30 μM compound in serum-free medium for 4 h, and incubated with 20 ng/ml IL-1β (Sigma, cat. SRE3083) in serum-free medium with the same concentration of compound for up to 4 h, unless otherwise indicated. Total protein was harvested as previously described using RIPA buffer with protease inhibitors. Proteins were resolved on 4-20% (w/v) SDS-polyacrylamide gradient gels and transferred to Immobilon-P PVDF membranes. […] Chemiluminescence was detected using the Western Lightning Chemiluminescence system and ImageQuant™ LAS 4000 biomolecular imager. Band intensity in images generated with the LAS 4000 using the same settings were quantified by NIH ImageJ.

ERK phosphorylation = test: Western blot, IL-1β-inducible ERK phosphorylation in HMEC-1; assay type: cell-based, human
Protocol: Western blot analysis with extracts of cells treated with […]. HMEC-1 (80-90% confluency) were arrested in serum-free MCDB131 medium (Invitrogen, MD) without any growth factor for 48 h. Cells were treated with 30 μM compound in serum-free medium for 4 h, and incubated with 20 ng/ml IL-1β (Sigma, cat. SRE3083) in serum-free medium with the same concentration of compound for up to 4 h, unless otherwise indicated. Total protein was harvested as previously described using RIPA buffer with protease inhibitors. Proteins were resolved on 4-20% (w/v) SDS-polyacrylamide gradient gels and transferred to Immobilon-P PVDF membranes. Membranes were blocked with 5% skim milk and incubated with rabbit monoclonal FosB (cat. 2251S, 1:1000, Cell Signaling, USA), rabbit monoclonal VCAM-1 (cat. 13662S, 1:1000, Cell Signaling, USA), rabbit monoclonal p44/42 MAPK (cat. 4695S, 1:1000, Cell Signaling, USA), rabbit polyclonal p38 MAPK (cat. 9212S, 1:1000, Cell Signaling, USA), rabbit polyclonal SAPK/JNK (cat. 9252S, 1:1000, Cell Signaling, USA), rabbit monoclonal phospho-SAPK/JNK (cat. 4671S, 1:1000, Cell Signaling, USA), rabbit monoclonal phospho-p38 MAPK (cat. 4511S, 1:1000, Cell Signaling, USA), or, mouse monoclonal phospho-p44/42 MAPK antibodies (cat. 9106S, 1:2000, Cell Signaling, USA) at 4° C. overnight or mouse monoclonal β-actin antibodies (cat. A5316, 1:10000, Sigma-Aldrich) antibodies at 22° C. for 1 h. Membranes were then incubated with horseradish peroxidase conjugated secondary goat anti-rabbit (cat. P0448, 1:1000, DAKO Cytomation, Denmark) or goat anti-mouse (cat. P0447, 1:1000, DAKO Cytomation, Denmark) antibodies for 1 h. Chemiluminescence was detected using the Western Lightning Chemiluminescence system and ImageQuant™ LAS 4000 biomolecular imager. Band intensity in images generated with the LAS 4000 using the same settings were quantified by NIH ImageJ.

VCAM-1 = test: Collagen antibody-induced arthritis, hind limb immunohistochemistry for VCAM-1; assay type: in vivo, mouse; conditions: CAIA mice; Day 14 hind limbs
Protocol: (§2) Collagen antibody-induced arthritis. Arthritis was induced in female Balb/c mice (6-8 week-old) as previously described with a commercially obtained cocktail of 5 monoclonal antibodies to type II collagen at 2 mg/mouse (Chondrex, Inc. Redmond, WA) followed by LPS (50 μg/mouse) with or without BT2 (3 or 30 mg/kg mouse) in DMSO vehicle was administered i.p. on Day 3. Hind footpad thickness was measured on Day 9 using digital calipers. Mice were sacrificed on Day 14 and microCT scanning of hind limbs was performed.
Immmunohistochemical staining of hind limbs for VCAM-1 and ICAM-1 and analysis. Formalin-fixed, paraffin embedded of hind limbs were sectioned (5 μm). Dako EnVision Rabbit Kit (cat. K4011, Dako) was used for immmunohistochemical staining for VCAM-1 and ICAM-1. […] Integrated optical density (IOD) of positive staining in ankle joint (tibia and talus) articular cartilage was assessed for VCAM-1 and ICAM-1 using Image-Pro Plus software (Cybernetics, Bethesda, MD, USA). Area (μm^2) of ankle joint articular cartilage was measured using Image-Pro Plus software. Total cell number and positive staining cell number in ankle joint articular cartilage were counted manually using Image-Pro Plus software. […]

Balb/c mice = test: Collagen antibody-induced arthritis (footpad thickness, H&E, micro-CT, TRAP); assay type: in vivo, mouse; conditions: CAIA mice
Protocol: as §2
Micro-CT scanning and analysis. Formalin-ethanol fixed hind limbs were micro-CT scanned prior to histology processing using a Siemens Inveon micro-CT scanner (Victoria, Australia). Data was acquired with the Inveon Acquisition Workplace at 16.84 μm pixel size, 360 projections, 4100 ms integration time, 80 keV photon energy and 140 μA current. 3D models were visualized and snap shots of the limbs acquired with the Inveon Research Workplace software. Data was quantified by binary score where 0=no bone destruction and 1=destruction was given to each individual limb.
Tartrate-resistant acid phosphatase (TRAP) staining. Osteoclasts were stained using TRAP kit (Cosmo Bio, Japan, cat. PMC-AK04F-COS). Sections were heated at 65° C. for 1 h prior dewaxing. Tissue sections were deparaffinised with 100% xylene and rehydrated with 100, 70 and 30% ethanol and rinsed with distilled water for 5 min. Sections were covered with TRAP staining solution containing 3 mg tartaric acid per 50 ml tartaric acid buffer. The sections were incubated at 37° C. for 1 h, then rinsed in distilled water 3 times to halt the reaction. Sections were counterstained with hematoxylin for 5s then washed in running water until clear then dried. Sections were dehydrated with xylene and air-dried then mounted with aqueous permanent mounting medium. Within the synovium on the medial aspect of each animal joint, 6 random areas photographed under 20× objective were selected in the blinded fashion. Numbers of osteoclasts were counted using NIH Image J. Alternatively TRAP staining was quantitated using IOD (Image-Pro Plus).

[1] = system: plasma levels of IL-1β, IL-2, IL-6, IL-4, IL-10; test: Collagen antibody-induced arthritis, plasma cytokine levels; assay type: in vivo, mouse; conditions: CAIA mice; 30 mg/kg
p-p38 = test: Western blot, IL-1β-inducible p-p38 in HMEC-1; assay type: cell-based, human; conditions: 1-30 μM
Protocol: as §1

HMEC-1 = test: Endothelial network formation assay on Matrigel; assay type: cell-based, human
Protocol: Endothelial network formation assay. HMEC-1 (4×10^4 cells/well) in MCDB131 containing 1% FBS and compound (1 or 3 μM) or curcumin (1-40 μM) and 50 ng/ml FGF-2 were added to 96-well plates coated overnight at 4° C. with 100 μl of growth factor-reduced reconstituted basement membrane matrix (Matrigel, cat. 354230, Corning, NY). Network formation was observed over subsequent hours and photographed under 4× or 10× objective using an Olympus CKX41 microscope.

## CCOC(=O)Nc1ccc2c(c1)C(=O)N(CC)c1ccccc1O2 [BT2, (10-ethyl-11-oxo-10,11-dihydro-dibenzo[b,f][1,4]oxazepin-2-yl)-carbamic acid ethyl ester]
p-SAPK/JNK
  IL-1β-inducible p-SAPK/JNK: no effect
ERK phosphorylation; 30 μM, 20 ng/ml IL-1β up to 4 h
  IL-1β-inducible ERK phosphorylation (Western blot): inhibited
ERK phosphorylation; dose escalation 1-30 μM
  inhibition of IL-1β-inducible ERK phosphorylation, potency relative to PD98059: more potently than PD98059
VCAM-1
  VCAM-1 expression in bone: inhibit VCAM-1 and ICAM-1 expression
Balb/c mice; Day 14
  TRAP staining in the joints: reduced TRAP staining
  bone destruction (3D micro-CT of hind limbs): inhibits bone destruction
  inflammation (H&E staining): reduced by BT2
Balb/c mice; single administration 30 mg/kg i.p. Day 3, Day 9
  hind footpad thickness: inhibited
[1]
  plasma level of IL-1β: reduced plasma levels of IL-1β, IL-2 and IL-6 to normal levels
  plasma level of IL-2: reduced plasma levels of IL-1β, IL-2 and IL-6 to normal levels
  plasma level of IL-4: did not change
  plasma level of IL-6: reduced plasma levels of IL-1β, IL-2 and IL-6 to normal levels
  plasma level of IL-10: did not change
p-p38
  IL-1β-inducible p-p38: no effect
HMEC-1; 1 μM, after 4 h
  endothelial network formation: abolished network formation
HMEC-1; 3 μM, 1% FBS, 50 ng/ml FGF-2, 2, 4, 6 and 24 h
  endothelial network (tubule) formation on Matrigel: inhibited network formation
HMEC-1; after 4 h
  potency relative to curcumin in network formation assay: > 40 fold
